Source: paper PMC9738620, “Computer- and NMR-Aided Design of Small-Molecule Inhibitors of the Hub1 Protein” (Molecules, 2022)
Ends that are not written are not given here.

How the values were obtained:
Hub1 [1] = molecular target: T1, Hub1 (Saccharomyces cerevisiae, UniProt Q6Q546); test: biochemical
Method: Hub1 buffered in 20 mM HEPES, pH 7.5, 100 mM NaCl, 0.05% Tween-20 was labeled using His-Tag Labelling Kit RED-tris-NTA 2nd generation (MO-L018, NanoTemper, Munich, Germany), according to the manufacturer’s protocol. […] The final concentration of Hub1 was 50 nM. All measurements were calculated on a Monolith NT.115 instrument (NanoTemper, Munich, Germany) using the standard capillaries at the excitation power of 60% and the medium MST power in duplicates. The results were analyzed in GraphPad Prism software (GraphPad Prism version 8.0.0 for Windows, GraphPad Software, San Diego, CA, USA).

Hub1 [2] = molecular target: T1, Hub1
Method: The NMR measurements were carried out at 300 K on an ultrashielded 600 MHz Bruker AVANCE 3 (Bruker Corporation, Billerica, MA, USA) spectrometer equipped with a liquid nitrogen cryogenic system. Uniform ^15N isotope labeling was achieved by the expression of the protein in the M9 minimal media containing ^15NH4Cl as the sole nitrogen source. The NMR buffer for ^15N-labeled protein was PBS pH 7.4 with 5 mM DTT (dithiothreitol). To provide a lock signal, 10% (v/v) of D2O was added to the samples. Water suppression was carried out using the WATERGATE sequence. Stock solutions of the inhibitors used for titration were prepared in DMSO-d6. The binding of small molecule fragments towards Hub1 was measured with the 2D SOFAST-HMQC spectra of the ^15N-labeled Hub1 recombinant protein in 3-mm NMR capillaries. For the preliminary screening, the mixture of three compounds was added in a molar ratio compound to protein 1:10. Then the ^1H and SOFAST-HMQC spectrum was recorded and compared with the reference spectrum of the protein Hub1 titrated with a suitable amount of DMSO. When any activity occurred, all compounds which were in the mixture were tested one by one. The individual spectra were recorded in 10-fold excess of the inhibitor either by ^1H NMR or SOFAST-HMQC. […] The spectra were processed with TopSpin 3.2 software (Bruker Corporation, Billerica, MA, USA).

Snu66 peptide-14 = molecular target: T2, Snu66 peptide-14 (Saccharomyces cerevisiae); test: MST
T2 chain: TNEIREKLGM

T1 sequence (Q6Q546 whole entry): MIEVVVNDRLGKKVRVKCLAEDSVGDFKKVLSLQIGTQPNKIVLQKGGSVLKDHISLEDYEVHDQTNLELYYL

For TNEIREKLGM [Peptide-14], which Kd (Hub1 [1]) is on record?
Its Kd is 14 ± 8.3 µM.

For IREKLGM [Peptide-11], which “changes in chemical shifts (in words)” value (Hub1 [2]; 1H NMR, Hub1:peptide ratio 1:1 to 1:10, 300 K) is on record?
Its value is “changes in chemical shifts in the aliphatic (δ = 0.04 ppm) and aromatic (δ = 6.5 ppm) regions”.

And the “chemical shift changes, aliphatic region (δ)” value (Hub1 [2]; 1H NMR, Hub1:peptide ratio 1:1 to 1:10, 300 K, aliphatic region)?
The value was 0.04 ppm.

What about the “buffer pH after titration” value (Hub1 [2]; after titration of Hub1 with peptide) of the same molecule?
Its value is 6.7.

What about the “binding to Hub1 by MST (in words)” value (Hub1 [1]; MST, labeled Hub1 50 nM, peptide […] to 250 µM, pH 7.5, duplicates) of the same molecule?
The value was “no significant binding events”.

B1: Hub1 1-73 (protein)
chain: MIEVVCNDRLGKKVRVKCNTDDTIGDLKKLIAAQTGTRWNKIVLKKWYTIFKDHVSLGDYEIHDGMNLELYYQ
Which Kd (Snu66 peptide-14) does the source give for B1 here?
Its Kd is 14 µM.
